Assay results from US20030032003A1, “IN VIVO SELECTION” (priority 2000, published 2003).

Key:
[1] = test system: hyg^R transgenic mice C57BL/6J-TgN(pPWL512hyg)1Ems; experiment: Acute toxicity of hygromycin B, approximate lethal dose; format: in vivo, mouse; conditions: for body weight, percentage of the body weight before the experiment / survival: hyg^R, 10 days
Protocol: (§1) The animals were kept in SPF conditions, supplied with standard diet and water ad libitum. The room was held at 22° C. with humidity 70% and 12 hours dark-light cycle. Hygromycin-B was purchased from Sigma. The compound was dissolved in sterile water before application and the solution was injected i.p.
(§2) The approximate lethal dose of hygromycin B after single i.p. injections was determined according to Deichmann and LeBlanc (1943). […] Two sets of six month old male mice (22-28 g) were used for all acute toxicity experiments. […] Total volume injected was 0.5 ml. The health status and body weights of animals were monitored daily for 10 consecutive days. The lowest dose in the dose response curve at which one mouse died was considered as the approximate lethal dose. […] The animals were checked twice a day. The maximum theoretical time the animals could be dead before necropsy was performed was 12 hrs.
(§3) The approximate lethal dose (Deichmann and LeBlanc 1943) of hygromycin B in transgenic hyg^R bearing as well as wildtype mice was determined as a measure of the acute toxicity. […] The first dose in the increasing sequence of doses at which the mice died was considered the approximate lethal dose. The health status of animals was monitored for ten consecutive days. Hyg^R transgenic and wildtype mice tolerated a single i.p. injection of hygromycin B without immediate toxic symptoms or distress. The approximate lethal dose of hygromycin B for wildtype mice was […] (Table 1). […] Lethal doses in both hyg^R expressing transgenic and wild type strains caused the same signs of decreased activity which progressed to lethargy and death. The body weight of animals after lethal doses decreased which was less severe at shorter survival duration after hygromycin treatment (Table 1).

wildtype C57BL/6J mice = experiment: as above; format: in vivo, mouse; conditions: for body weight, percentage of the body weight before the experiment / survival: wildtype, 10 days
Protocol: as §1, §2, §3

hyg^R mice [2] = experiment: Biochemical analysis of serum after hygromycin B; format: in vivo, mouse; conditions: serum 48 hrs after treatment
Protocol: (§4) Serum biochemistry parameters analyzed included blood urea nitrogen ([…]), aspartate amino transferase (AST) and alanine amino transferase (ALT). The analyses were performed at Tufts University Veterinary Medical Diagnosis Laboratory with the chemical analyzer Hitachi 747. Blood was collected from the posterior vena cava of hyg^R mice that were treated with saline, 803 mg/kg and wildtype mice administered 9 mg/kg hygromycin B i.p.
(§5) Hyg^R mice were treated with the lethal dose of 803 mg/kg hygromycin B and wildtype mice were treated with the lethal dose of 9 mg/kg hygromycin B. As a control, hyg^R mice were also treated with the nontoxic dose of 9 mg/kg. Serum samples taken 48 hrs after treatment were evaluated for the levels of blood urea nitrogen (BUN), aspartate amino transferase (AST) and alanine amino transferase (ALT). Elevated BUN is associated with dehydration and/or renal insufficiency. Elevated activities of ALT and AST are characteristic for liver damage particularly necrosis, cirrhosis and/or hepatitis. Increased AST levels are also characteristic for muscle trauma, myocardial infarction or myositis.

wildtype mice [3] = experiment: Biochemical analysis of serum after hygromycin B; format: in vivo, mouse; conditions: 9 mg/kg single i.p., serum 48 hrs after treatment
Protocol: as §4, §5

hyg^R mice [4] = experiment: Histopathological analysis of mouse tissues after Hygromycin B; format: in vivo; conditions: lethal dose 803 mg/kg
Protocol: (§6) The organs were prepared as paraffin-embedded glass slides stained with hematoxylin and eosin and evaluated as per the NTP (National Toxicology Program of NIEHS) standards. […] For liver, two cross sections, one of each of the two largest liver lobes were examined. For kidneys, an entire cross section (left longitudinal, right transverse) were evaluated. Lungs had two cross sections (one of each of the two largest lobes). The entire sections on the slides (all fields) were evaluated under blinded conditions for lesions and scored (graded) on a subjective basis compared to control animals. The grades were as follows: 1=minimal, 2=mild, 3=moderate, 4=marked, and 0=no pathological changes. The preparation and evaluation of slides used the NTP criteria and terminology (NIEHS, 1993).
(§7) Morphological manifestations of hygromycin B tissue specific toxicity in animals treated with lethal doses was assessed by microscopic analysis. Lethal doses of hygromycin B (9 mg/kg) in wildtype animals caused nephrotoxicity typified by tubule eosinophilia, degeneration, and necrosis characterized by cytoplasmic eosinophilia associated with necrosis, loss of tubule cellular and nuclear detail or degeneration, and pyknotic nuclei and fragmentation of cells. These lesions are typical of acute tubular nephrosis. […] The hyg^R mice treated with lethal doses of hygromycin B (803 mg/kg) had liver damage characterized as hepatocellular fatty change, acute inflammation, and hepatocellular necrosis. Liver lesions in the hyg^R transgenic mice were typified by hepatocellular necrosis with nuclear pyknosis and loss of cellular detail, acute infiltration with small foci of neutrophils, and fatty change with hepatocellular intracytoplasmic large distinct clear vacuoles that displaced nuclei. These liver lesions are characteristic of acute liver damage.

wildtype mice [5] = experiment: as above; format: in vivo; conditions: lethal dose 9 mg/kg
Protocol: as §6, §7

For `CN[C@H]1C[C@@H](N)[C@H](O)[C@@H](O[C@@H]2O[C@H](CO)[C@H](O)[C@@H]3OC4(O[C@H]23)O[C@H]([C@@H](N)CO)[C@H](O)[C@H](O)[C@H]4O)[C@@H]1O` (stereo partly drawn) [hygromycin B, Hygromycin-B], the approximate lethal dose ([1]; hyg^R animals, single i.p.) was 535 mg/kg, the “increase of approximate lethal dose over the wildtype strain” value ([1]; hyg^R vs wildtype) was 89 fold and the “body weight, percentage of the body weight before the experiment” value (shortened to “body weight, percentage”) ([1]; 4 mg/kg single i.p.) was 102 ± 2%. The survival ([1]; 4 mg/kg single i.p.) was “surv (surv. animals survived the 10 days period)”, the “body weight, percentage” value ([1]; 6 mg/kg single i.p.) was 107 ± 4% and the survival ([1]; 6 mg/kg single i.p.) was “surv (surv. animals survived the 10 days period)”. The “body weight, percentage” value ([1]; 9 mg/kg single i.p.) was 107 ± 3%, the survival ([1]; 9 mg/kg single i.p.) was “surv (surv. animals survived the 10 days period)” and the “body weight, percentage” value ([1]; 13.5 mg/kg single i.p.) was 101 ± 2%. For the same molecule, the survival ([1]; 13.5 mg/kg single i.p.) was “surv (surv. animals survived the 10 days period)”, the “body weight, percentage” value ([1]; 20 mg/kg single i.p.) was 105 ± 1% and the survival ([1]; 20 mg/kg single i.p.) was “surv (surv. animals survived the 10 days period)”. The “body weight, percentage” value ([1]; 30 mg/kg single i.p.) was 105 ± 3%, the survival ([1]; 30 mg/kg single i.p.) was “surv (surv. animals survived the 10 days period)” and the “body weight, percentage” value ([1]; 46 mg/kg single i.p.) was 107 ± 5%. The survival ([1]; 46 mg/kg single i.p.) was “surv (surv. animals survived the 10 days period)”, the “body weight, percentage” value ([1]; 69 mg/kg single i.p.) was 101 ± 3% and the survival ([1]; 69 mg/kg single i.p.) was “surv (surv. animals survived the 10 days period)”. For the same molecule, the “body weight, percentage” value ([1]; 104 mg/kg single i.p.) was 103 ± 2%, the survival ([1]; 104 mg/kg single i.p.) was “surv (surv. animals survived the 10 days period)” and the “body weight, percentage” value ([1]; 155 mg/kg single i.p.) was 102 ± 2%. The survival ([1]; 155 mg/kg single i.p.) was “surv (surv. animals survived the 10 days period)”, the “body weight, percentage” value ([1]; 233 mg/kg single i.p.) was 93 ± 5% and the survival ([1]; 233 mg/kg single i.p.) was “surv (surv. animals survived the 10 days period)”. For the same molecule, the “body weight, percentage” value ([1]; 358 mg/kg single i.p.) was 99 ± 3%, the survival ([1]; 358 mg/kg single i.p.) was “surv (surv. animals survived the 10 days period)” and the “body weight, percentage” value ([1]; 535 mg/kg single i.p.) was 83 ± 5%. The survival ([1]; 535 mg/kg single i.p.) was 3 days, the “body weight, percentage” value ([1]; 803 mg/kg single i.p.) was 89 ± 4% and the survival ([1]; 803 mg/kg single i.p.) was 3.5 days. The “body weight, percentage” value ([1]; 1205 mg/kg single i.p.) was 88 ± 2%, the survival ([1]; 1205 mg/kg single i.p.) was 2 days and the “body weight, percentage” value ([1]; 1809 mg/kg single i.p.) was 97 ± 2%. The survival ([1]; 1809 mg/kg single i.p.) was 1 days, the “body weight, percentage” value ([1]; 2709 mg/kg single i.p.) was 98 ± 1% and the survival ([1]; 2709 mg/kg single i.p.) was 1 days. The approximate lethal dose (wildtype C57BL/6J mice; wildtype mice, single i.p.) was 6 mg/kg, the “body weight, percentage” value (wildtype C57BL/6J mice; 2.7 mg/kg single i.p.) was 107 ± 3% and the survival (wildtype C57BL/6J mice; 2.7 mg/kg single i.p.) was “surv (surv. animals survived the 10 days period)”. For the same molecule, the “body weight, percentage” value (wildtype C57BL/6J mice; 4 mg/kg single i.p.) was 104 ± 1%, the survival (wildtype C57BL/6J mice; 4 mg/kg single i.p.) was “surv (surv. animals survived the 10 days period)” and the “body weight, percentage” value (wildtype C57BL/6J mice; 6 mg/kg single i.p.) was 83 ± 2%. For the same molecule, the survival (wildtype C57BL/6J mice; 6 mg/kg single i.p.) was 3 days, the “body weight, percentage” value (wildtype C57BL/6J mice; 9 mg/kg single i.p.) was 91 ± 4% and the survival (wildtype C57BL/6J mice; 9 mg/kg single i.p.) was 3 days. The “body weight, percentage” value (wildtype C57BL/6J mice; 13.5 mg/kg single i.p.) was 86 ± 6%, the survival (wildtype C57BL/6J mice; 13.5 mg/kg single i.p.) was 3 days and the “body weight, percentage” value (wildtype C57BL/6J mice; 20 mg/kg single i.p.) was 83 ± 2%. For the same molecule, the survival (wildtype C57BL/6J mice; 20 mg/kg single i.p.) was 3 days, the “body weight, percentage” value (wildtype C57BL/6J mice; 30 mg/kg single i.p.) was 82 ± 2% and the survival (wildtype C57BL/6J mice; 30 mg/kg single i.p.) was 3 days. It also gave an ALT (hyg^R mice [2]; 9 mg/kg single i.p.) of 28.7 ± 15.1 u/l, an AST (hyg^R mice [2]; 9 mg/kg single i.p.) of 43.0 ± 5.2 u/l and a BUN (hyg^R mice [2]; 9 mg/kg single i.p.) of 24.0 ± 4 mg/dL. For the same molecule, the ALT (hyg^R mice [2]; 803 mg/kg single i.p.) was 108 ± 66.3 u/l, the AST (hyg^R mice [2]; 803 mg/kg single i.p.) was 102.0 ± 12.7 u/l and the BUN (hyg^R mice [2]; 803 mg/kg single i.p.) was 102 ± 55.1 mg/dL. It also gave an ALT (wildtype mice [3]) of 108 ± 61.5 u/l, an AST (wildtype mice [3]) of 135 ± 29.7 u/l and a BUN (wildtype mice [3]) of 97.7 ± 5.5 mg/dL. The “Kidney Tubule degeneration, lesion severity grade” value (hyg^R mice [4]) was 0, the “Kidney Tubule eosinophilia, lesion severity grade” value (hyg^R mice [4]) was 0 and the “Kidney Tubule necrosis, lesion severity grade” value (hyg^R mice [4]) was 0. For the same molecule, the “Liver Acute inflamation, lesion severity grade” value (hyg^R mice [4]) was 0.8 ± 1.0, the “Liver Fatty change, lesion severity grade” value (hyg^R mice [4]) was 0.6 ± 0.8 and the “Liver Necrosis, lesion severity grade” value (hyg^R mice [4]) was 2.2 ± 0.4. The “Kidney Tubule degeneration, lesion severity grade” value (wildtype mice [5]) was 2.2 ± 0.4, the “Kidney Tubule eosinophilia, lesion severity grade” value (wildtype mice [5]) was 1.0 ± 1.2 and the “Kidney Tubule necrosis, lesion severity grade” value (wildtype mice [5]) was 1.2 ± 1.1. For the same molecule, the “Liver Acute inflamation, lesion severity grade” value (wildtype mice [5]) was 0, the “Liver Fatty change, lesion severity grade” value (wildtype mice [5]) was 0 and the “Liver Necrosis, lesion severity grade” value (wildtype mice [5]) was 0.
